Measurements taken from patent publication US9289446B2, “Myocardial perfusion imaging methods and compositions” (GILEAD SCIENCES, INC., priority 2002, dated 2016).

Experiments:
[1] = tested on: blood flow in coronary, mesenteric, hind limb and renal vascular beds; assay: Example 8: vasodilator effects in different vascular beds (CBF, MBF, LBF, RBF) in awake dogs; type: in vivo; details: CVT-3146 2.5 μg/kg, ADO 250 μg/kg
Experimental: Example 8 employed a pharmaceutical composition consisting of an aqueous composition of 100 micrograms/mL CVT-3146 in 15% (w:v) propylene glycol and 100 mM phosphate buffer at pH 7 with 0.1% EDTA. The formulation was stored in type I glass vials at 5 mL per vial.
In this study the vasodilator effects of CVT-3146 were compared to those of ADO in different vascular beds in awake dogs. Dogs were chronically instrumented for measurements of the blood flow in coronary (CBF), mesenteric (MBF), hind limb (LBF), and renal (RBF) vascular beds, and hemodynamics.

[2] = tested on: heart rate (HR) and blood pressure (BP); assay: Example 5: heart rate, blood pressure and plasma catecholamines after i.v. bolus in awake rats (sympathoexcitation); type: in vivo; details: in the presence of hexamethonium 10 mg/kg, n=5
Experimental: The present study was carried out to determine whether CVT-3146, a selective A2A adenosine receptor agonist, causes sympathoexcitation.
CVT (0.31 μg/kg-50 μg/kg) was given as a rapid i.v. bolus to awake rats and heart rate (HR) and blood pressure (BP) were monitored. CVT-3146 caused an increase in BP and systolic pressure (SP) at lower doses while at higher doses there was a decrease in BP and SP. […] The increase in HR was evident at the lowest dose of CVT at which there was no appreciable decrease in BP. ZM241385 (30 μg/kg, N=5), an A2A receptor antagonist, attenuated the decrease in BP (CVT-3146: 14±3%, ZM: 1±1%) and the increase in HR (CVT: 27±3%, ZM: 18±3%) caused by CVT-3146. Pretreatment with metoprolol (MET, 1 mg/kg, n=5), a beta-blocker, attenuated the increase in HR (CVT: 27±3%, MET: 15±2%), but had no effect on hypotension caused by CVT-3146. In the presence of hexamethonium (HEX, 10 mg/kg, n=5), a ganglionic blocker, the tachycardia was prevented (CVT: 27±3%, HEX: −1±2%), but BP was further reduced (CVT: −11±2%, HEX: −49±5%).

Row | Compound | duration for CBF above 2-fold of the baseline [1] | change in BP caused by CVT-3146 [2] | increase in HR (tachycardia) caused by CVT-3146 [2]
1 | Nc1ncnc2c1ncn2[C@@H]1O[C@H](CO)[C@@H](O)[C@H]1O [adenosine, reference compound] | 16 ± 3 s | – | –
2 | C[N+](C)(C)CCCCCC[N+](C)(C)C [hexamethonium, reference compound] | – | −49±5% | −1±2%
